Measurements published in PubChem BioAssay AID330 (DTP/NCI, 2004).
Several values for one entry are separate records, joined by “and”; a condition that tells them apart may be missing. Identical values can stand only once. Inconclusive results and toxic doses are left out.

Test system: P388 leukemia ip, CD2F1 mice, survival T/C
Experiment: NCI In Vivo Anticancer Drug Screen. Data for tumor model P388 Leukemia (intraperitoneal) in CD2F1 (CDF1) mice
Conditions: endpoint: median survival time, higher = longer survival
Method in brief: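 Mice carrying the transplanted tumor received test compound or vehicle. Survival was recorded in each group, and the value is the treated-group measurement divided by that of the vehicle-treated control group.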

[1] = dose: 50.0 mg/kg/injection, schedule: Q01DX005 (ip), vehicle: saline with Tween-80
[2] = dose: 100.0 mg/kg/injection, schedule: Q01DX005 (ip), vehicle: saline with Tween-80
[3] = dose: 200.0 mg/kg/injection, schedule: Q01DX005 (ip), vehicle: saline with Tween-80
[4] = dose: 50.0 mg/kg/injection, schedule: Q01DX009 (ip), vehicle: saline
[5] = dose: 50.0 mg/kg/injection, schedule: Q01DX009 (ip), vehicle: saline with Tween-80
[6] = dose: 100.0 mg/kg/injection, schedule: Q01DX009 (ip), vehicle: saline with Tween-80
[7] = dose: 200.0 mg/kg/injection, schedule: Q01DX009 (ip), vehicle: saline with Tween-80
[8] = dose: 6.25 mg/kg/injection, schedule: Q01DX009 (ip), vehicle: saline with Tween-80
[9] = dose: 12.5 mg/kg/injection, schedule: Q01DX009 (ip), vehicle: saline with Tween-80
[10] = dose: 25.0 mg/kg/injection, schedule: Q01DX009 (ip), vehicle: saline with Tween-80
[11] = dose: 60.0 mg/kg/injection, schedule: Q01DX005 (ip), vehicle: saline with Tween-80
[12] = dose: 120.0 mg/kg/injection, schedule: Q01DX005 (ip), vehicle: saline with Tween-80
[13] = dose: 240.0 mg/kg/injection, schedule: Q01DX005 (ip), vehicle: saline with Tween-80

## CCCCCN(CCCCC)CC(O)c1c(Cl)ccc2ccccc12 (configuration not stated)
dose: 12.5 mg/kg/injection, schedule: Q01DX005 (ip), vehicle: saline with Tween-80
  T/C: 106 % of control
dose: 25.0 mg/kg/injection, schedule: Q01DX005 (ip), vehicle: saline with Tween-80
  T/C: 103 % of control
[1]
  T/C: 103 % of control and 97 % of control
[2]
  T/C: 106 % of control
[3]
  T/C: 112 % of control

## COc1ccc(OC)c(NC(=O)Sc2c(Cl)c(Cl)nc(Cl)c2Cl)c1
dose: 50.0 mg/kg/injection, schedule: Q01DX009 (ip), vehicle: Klucel (hydroxypropylcellulose) (HPC)
  T/C: 120 % of control

## ClC(Cl)c1nc2ccccc2[nH]1
dose: 6.25 mg/kg/injection, schedule: Q01DX009 (ip), vehicle: saline
  T/C: 108 % of control
dose: 12.5 mg/kg/injection, schedule: Q01DX009 (ip), vehicle: saline
  T/C: 100 % of control
dose: 25.0 mg/kg/injection, schedule: Q01DX009 (ip), vehicle: saline
  T/C: 108 % of control
[4]
  T/C: 101 % of control

## CCOP(=O)(Nc1ccc(C)cc1C)OCC
[4]
  T/C: 100 % of control
dose: 100.0 mg/kg/injection, schedule: Q01DX001 (ip), vehicle: saline
  T/C: 103 % of control
dose: 100.0 mg/kg/injection, schedule: Q01DX009 (ip), vehicle: saline
  T/C: 104 % of control
dose: 200.0 mg/kg/injection, schedule: Q01DX001 (ip), vehicle: saline
  T/C: 107 % of control
dose: 200.0 mg/kg/injection, schedule: Q01DX009 (ip), vehicle: saline
  T/C: 99 % of control
dose: 400.0 mg/kg/injection, schedule: Q01DX001 (ip), vehicle: saline
  T/C: 100 % of control

## SC(Cc1nc2ccccc2[nH]1)c1nc2ccccc2[nH]1 (configuration not stated)
dose: 100.0 mg/kg/injection, schedule: Q01DX001 (ip), vehicle: Klucel + Tween-80
  T/C: 93 % of control
dose: 200.0 mg/kg/injection, schedule: Q01DX001 (ip), vehicle: Klucel + Tween-80
  T/C: 93 % of control
dose: 400.0 mg/kg/injection, schedule: Q01DX001 (ip), vehicle: Klucel + Tween-80
  T/C: 100 % of control

## COCCCNC(=S)N/N=C/c1cccc(OC)c1O
[5]
  T/C: 101 % of control
[6]
  T/C: 111 % of control
[7]
  T/C: 88 % of control

## Cc1ccc(S(=O)(=O)NC(=O)Nc2nccs2)cc1
dose: 12.5 mg/kg/injection, schedule: Q01DX009 (ip), vehicle: distilled water + Tween-80
  T/C: 99 % of control
dose: 25.0 mg/kg/injection, schedule: Q01DX009 (ip), vehicle: distilled water + Tween-80
  T/C: 92 % of control
dose: 50.0 mg/kg/injection, schedule: Q01DX009 (ip), vehicle: distilled water + Tween-80
  T/C: 97 % of control
dose: 100.0 mg/kg/injection, schedule: Q01DX009 (ip), vehicle: distilled water + Tween-80
  T/C: 106 % of control
dose: 200.0 mg/kg/injection, schedule: Q01DX009 (ip), vehicle: distilled water + Tween-80
  T/C: 99 % of control

## O=NN(CCCl)C(=O)Nc1cccc(O)c1
dose: 66.0 mg/kg/injection, schedule: Q04DX003 (ip), vehicle: Klucel (hydroxypropylcellulose) (HPC)
  T/C: 220 % of control
dose: 100.0 mg/kg/injection, schedule: Q04DX003 (ip), vehicle: Klucel (hydroxypropylcellulose) (HPC)
  T/C: 240 % of control

## Cc1ccc(NCCN(C)C)c2c(=O)c3cccc(O)c3sc12
[5]
  T/C: 100 % of control
[6]
  T/C: 95 % of control
[7]
  T/C: 97 % of control

## CN(C)c1c([N+](=O)[O-])cc2[nH]cnc2c1[N+](=O)[O-]
dose: 3.12 mg/kg/injection, schedule: Q04DX003 (ip), vehicle: saline with Tween-80
  T/C: 103 % of control
dose: 6.25 mg/kg/injection, schedule: Q04DX003 (ip), vehicle: saline with Tween-80
  T/C: 103 % of control
dose: 12.5 mg/kg/injection, schedule: Q04DX003 (ip), vehicle: saline with Tween-80
  T/C: 105 % of control

## COc1cc(OC)c(C(=O)O)cc1C(C)=O
[5]
  T/C: 105 % of control
[6]
  T/C: 115 % of control
[7]
  T/C: 96 % of control

## O=C(/C=C(\NC1CCCCC1)C(=O)c1ccccc1)c1ccccc1
[6]
  T/C: 90 % of control
[7]
  T/C: 90 % of control
dose: 400.0 mg/kg/injection, schedule: Q01DX009 (ip), vehicle: saline with Tween-80
  T/C: 100 % of control

## COC1OC2COC(c3ccccc3)OC2C(OS(=O)(=O)c2ccc(C)cc2)C1OS(=O)(=O)c1ccc(C)cc1 (configuration not stated)
[8]
  T/C: 114 % of control
[9]
  T/C: 114 % of control
[10]
  T/C: 108 % of control and 111 % of control
[6]
  T/C: 87 % of control
[7]
  T/C: 91 % of control

## CC(c1ccccc1)N1OC1(C)C (configuration not stated)
dose: 12.5 mg/kg/injection, schedule: Q01DX005 (ip), vehicle: Klucel (hydroxypropylcellulose) (HPC)
  T/C: 101 % of control
dose: 25.0 mg/kg/injection, schedule: Q01DX005 (ip), vehicle: Klucel (hydroxypropylcellulose) (HPC)
  T/C: 106 % of control
dose: 50.0 mg/kg/injection, schedule: Q01DX005 (ip), vehicle: Klucel (hydroxypropylcellulose) (HPC)
  T/C: 102 % of control

## CCOc1cc2c(cc1C/C=C/c1ccccc1)OCO2
[1]
  T/C: 100 % of control
[2]
  T/C: 110 % of control
[3]
  T/C: 101 % of control

## O=C(CCc1c[nH]c2ccccc12)c1ccccc1O
[11]
  T/C: 98 % of control
[12]
  T/C: 100 % of control
[13]
  T/C: 92 % of control

## CC(/C=C/c1ccccc1)=N\NC(=S)Nc1ccc(Cl)cc1
dose: 100.0 mg/kg/injection, schedule: Q04DX002 (ip), vehicle: Klucel (hydroxypropylcellulose) (HPC)
  T/C: 108 % of control
dose: 200.0 mg/kg/injection, schedule: Q04DX002 (ip), vehicle: Klucel (hydroxypropylcellulose) (HPC)
  T/C: 107 % of control
dose: 400.0 mg/kg/injection, schedule: Q04DX002 (ip), vehicle: Klucel (hydroxypropylcellulose) (HPC)
  T/C: 108 % of control

## C=C1C(=O)C[C@@H]2CC(C)(C)C[C@]12CC(=O)O
dose: 2.5 mg/kg/injection, schedule: Q01DX005 (ip), vehicle: water
  T/C: 90 % of control
dose: 5.0 mg/kg/injection, schedule: Q01DX005 (ip), vehicle: water
  T/C: 109 % of control
dose: 10.0 mg/kg/injection, schedule: Q01DX005 (ip), vehicle: water
  T/C: 97 % of control
dose: 20.0 mg/kg/injection, schedule: Q01DX005 (ip), vehicle: water
  T/C: 98 % of control
dose: 40.0 mg/kg/injection, schedule: Q01DX005 (ip), vehicle: water
  T/C: 101 % of control

## O=C(O)c1ccc(O)c(C(=O)O)c1
[5]
  T/C: 94 % of control
[6]
  T/C: 94 % of control

## CCC(C(=O)O)C1(C(=O)O)CCCCCC1 (configuration not stated)
dose: 100.0 mg/kg/injection, schedule: Q01DX001 (ip), vehicle: saline with Tween-80
  T/C: 101 % of control
dose: 100.0 mg/kg/injection, schedule: Q04DX002 (ip), vehicle: saline with Tween-80
  T/C: 98 % of control
dose: 200.0 mg/kg/injection, schedule: Q01DX001 (ip), vehicle: saline with Tween-80
  T/C: 106 % of control
dose: 200.0 mg/kg/injection, schedule: Q04DX002 (ip), vehicle: saline with Tween-80
  T/C: 98 % of control
dose: 400.0 mg/kg/injection, schedule: Q01DX001 (ip), vehicle: saline with Tween-80
  T/C: 108 % of control
dose: 400.0 mg/kg/injection, schedule: Q04DX002 (ip), vehicle: saline with Tween-80
  T/C: 109 % of control

## O=C(/C=C/c1ccccc1)c1cc2c(cc1O)OCO2
[11]
  T/C: 103 % of control
[12]
  T/C: 107 % of control
[13]
  T/C: 100 % of control

## CN1CCC2c3c([nH]c4ccccc34)C(C)(C)OC2C1 (configuration not stated)
[11]
  T/C: 111 % of control
[12]
  T/C: 113 % of control
[13]
  T/C: 118 % of control

## O=[N+]([O-])c1ccc(N/N=C(\CO)c2ccccc2)c([N+](=O)[O-])c1
dose: 50.0 mg/kg/injection, schedule: Q04DX003 (ip), vehicle: saline with Tween-80
  T/C: 100 % of control
dose: 100.0 mg/kg/injection, schedule: Q04DX003 (ip), vehicle: saline with Tween-80
  T/C: 104 % of control
dose: 200.0 mg/kg/injection, schedule: Q04DX003 (ip), vehicle: saline with Tween-80
  T/C: 100 % of control

## COC1(OC)C(Cl)=C(Cl)C(Cl)=C1Cl
[8]
  T/C: 95 % of control
[9]
  T/C: 118 % of control
[10]
  T/C: 113 % of control

## CCCCCCCCCCCCC1=C(O)C(=O)C=C(O)C1=O
dose: 12.5 mg/kg/injection, schedule: Q01DX005 (ip), vehicle: suspension in saline
  T/C: 102 % of control
dose: 25.0 mg/kg/injection, schedule: Q01DX005 (ip), vehicle: suspension in saline
  T/C: 108 % of control
dose: 50.0 mg/kg/injection, schedule: Q01DX005 (ip), vehicle: saline
  T/C: 99 % of control
dose: 50.0 mg/kg/injection, schedule: Q01DX005 (ip), vehicle: suspension in saline
  T/C: 112 % of control
